Measured values reported in ChEMBL document CHEMBL1926534, “Efficient synthesis of a novel m-phenylene derivative as a selective EP4 agonist inducing follicular growth and maturation in the ovary” (Bioorg Med Chem Lett, 2011).

Legend:
[1] = Agonist activity at EP3 receptor in guinea pig uterus assessed as concentration required to reach uterine motility index number 2000; type: functional, Cavia porcellus
[2] = Agonist activity at Prostaglandin E2 receptor EP1/EP2 in guinea pig ileum; type: functional, tissue-based; details: Cavia porcellus
[3] = molecular target: Prostaglandin E2 receptor EP4 subtype (Oryctolagus cuniculus, UniProt Q28691); test: Agonist activity at rabbit EP4 receptor assessed as relaxation of Kcl-induced tissue contraction by isometric transducer method; type: functional
Prostaglandin E2 receptor EP4 subtype, sequence (Q28691 whole entry): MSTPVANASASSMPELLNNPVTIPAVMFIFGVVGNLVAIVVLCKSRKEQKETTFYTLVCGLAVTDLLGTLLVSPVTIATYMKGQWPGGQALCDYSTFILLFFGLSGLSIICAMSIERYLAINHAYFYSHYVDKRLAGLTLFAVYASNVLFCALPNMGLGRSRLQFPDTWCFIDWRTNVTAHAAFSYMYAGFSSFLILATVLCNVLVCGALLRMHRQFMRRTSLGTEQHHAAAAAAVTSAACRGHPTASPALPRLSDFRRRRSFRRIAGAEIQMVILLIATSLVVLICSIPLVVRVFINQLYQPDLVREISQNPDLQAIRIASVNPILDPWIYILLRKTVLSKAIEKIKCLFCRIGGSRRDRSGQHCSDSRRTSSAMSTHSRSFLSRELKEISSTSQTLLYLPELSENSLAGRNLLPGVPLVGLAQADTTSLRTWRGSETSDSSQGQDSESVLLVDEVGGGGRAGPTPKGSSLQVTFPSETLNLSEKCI

Row | EC50 [2] | EC50 [3] | Structure (SMILES) | EC [1]
1 | 3.4 µM | 0.0026 µM | O[C@H](/C=C/[C@@H]1[C@H]2c3cccc(CCc4nnn[nH]4)c3O[C@H]2C[C@H]1O)CC1CCCCC1 | 2800 nM
2 | 0.15 µM | 0.0057 µM | O=C(O)CCc1cccc2c1O[C@H]1C[C@@H](O)[C@H](/C=C/[C@@H](O)CC3CCCCC3)[C@@H]21 | 540 nM
